This is an account of results in PubChem BioAssay AID1259411 (Chemical Carcinogenesis Research Information System (CCRIS), 2018).

The series concerns rodent carcinogenicity bioassays, tumor incidence. The series can be described thus: CCRIS carcinogenicity studies. The procedure, abridged:
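NCI-built, expert-reviewed records of carcinogenicity and related test outcomes (mutagenicity, tumor promotion/inhibition) compiled from published and report sources, historical span 1985-2011, not updated.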

Calls of active or inactive are those of the source. How the calls were made is not given here.

In the case of `ClC1=C(Cl)[C@]2(Cl)[C@@H]3[C@@H]4C[C@@H]([C@H]5O[C@@H]45)[C@@H]3[C@@]1(Cl)C2(Cl)Cl`, the carcinogen call (Species: MOUSE, Strain/Sex: B6C3F1/FEMALE, Route: ORAL, Dose: 0, 2.5, 5 PPM IN DIET FOR 80 WK (STUDY DURATION: 90-93 WK), Dose: 0, 2.5, 5 PPM IN DIET FOR 80 WK (STUDY DURATION: 90-93 WK)) is “inactive; negative”; the carcinogen call (Species: MOUSE, Strain/Sex: B6C3F1/MALE, Route: ORAL, Dose: 0, 2.5, 5 PPM IN DIET FOR 80 WK (STUDY DURATION: 90-93 WK), Dose: 0, 2.5, 5 PPM IN DIET FOR 80 WK (STUDY DURATION: 90-93 WK), Tumor Site: Type of Lesion: LIVER: HEPATOCELLULAR CARCINOMA) is “equivocal”; the carcinogen call (Species: MOUSE, Strain/Sex: B6C3F1/MALE, Route: ORAL, Dose: 0, 2.5, 5 PPM IN DIET FOR 80 WK (STUDY DURATION: 91-93 WK), Dose: 0, 2.5, 5 PPM IN DIET FOR 80 WK (STUDY DURATION: 91-93 WK), Tumor Site: Type of Lesion: LIVER: HEPATOCELLULAR CARCINOMA) was “active; positive”; the carcinogen call (Species: MOUSE, Strain/Sex: B6C3F1/MALE, Route: ORAL, Dose: 0, 10 PPM IN DIET FOR 85 WK (STUDY DURATION: 132 WK), Tumor Site: Type of Lesion: LIVER: TUMORS) was “active; positive”; the carcinogen call (Species: MOUSE, Strain/Sex: BALB/MALE, Route: ORAL, Dose: 0, 10 PPM (WT/WT) IN CORN OIL ADDED TO DIET FOR 75 WK (STUDY DURATION: 75 WK), Tumor Site: Type of Lesion: LIVER: HEPATOCELLULAR ADENOMA, HEPATOCELLULAR CARCINOMA) is “active; positive”; the carcinogen call (Species: MOUSE, Strain/Sex: C3H/MALE, Route: ORAL, Dose: 0, 10 PPM IN DIET FOR 85 WK (STUDY DURATION: 132 WK), Tumor Site: Type of Lesion: LIVER: TUMORS) was “active; positive”. Besides, the carcinogen call runs as follows: (Species: MOUSE, Strain/Sex: C57BL/MALE, Route: ORAL, Dose: 0, 10 PPM IN DIET FOR 85 WK (STUDY DURATION: 132 WK), Tumor Site: Type of Lesion: LIVER: TUMORS) “active; positive”; (Species: MOUSE, Strain/Sex: CF-1/MALE,FEMALE, Route: ORAL, Dose: 0, 0.1, 1, 2.5, 5, 10, 20 PPM IN DIET CONTINUOUSLY, Dose: 0, 0.1, 1, 2.5, 5, 10, 20 PPM IN DIET CONTINUOUSLY, Tumor Site: Type of Lesion: LIVER) “active; positive”; (Species: MOUSE, Strain/Sex: CF-1/MALE,FEMALE, Route: ORAL, Dose: 0, 0.1, 1.0, 10 PPM IN DIET FOR 132 WK, Dose: 0, 0.1, 1.0, 10 PPM IN DIET FOR 132 WK, Tumor Site: Type of Lesion: LIVER) “active; positive”; (Species: MOUSE, Strain/Sex: CF-1/MALE,FEMALE, Route: ORAL, Dose: 0, 1.25, 2.5, 5, 10, 20 PPM IN DIET FOR 128 WK, Dose: 0, 1.25, 2.5, 5, 10, 20 PPM IN DIET FOR 128 WK, Tumor Site: Type of Lesion: LIVER) “active; positive”; (Species: MOUSE, Strain/Sex: CF-1/MALE,FEMALE, Route: ORAL, Dose: 0, 10 PPM IN DIET FOR 2 YR OR MORE, Tumor Site: Type of Lesion: LIVER) “active; positive”; (Species: MOUSE, Strain/Sex: CF-1/MALE,FEMALE, Route: ORAL, Dose: 0, 10 PPM IN DIET FOR UP TO 110 WK, Tumor Site: Type of Lesion: LIVER: HEPATOCELLULAR TUMOR) “active; positive”. Besides, the carcinogen call is, setting by setting: (Species: MOUSE, Strain/Sex: CF-1/MALE,FEMALE, Route: ORAL, Dose: 10 PPM IN DIET FOR 0, 2, 4, 8, 16, 32 OR 64 WK, Tumor Site: Type of Lesion: LIVER: HEPATOCELLULAR TUMOR) “active; positive”; (Species: RAT, Strain/Sex: OSBORNE-MENDEL/FEMALE, Route: ORAL, Dose: 0, 29, 65 PPM TWA, IN DIET FOR 59-80 WK (STUDY DURATION: 110-111 WK), Dose: 0, 29, 65 PPM TWA, IN DIET FOR 59-80 WK (STUDY DURATION: 110-111 WK)) “inactive; negative”; (Species: RAT, Strain/Sex: OSBORNE-MENDEL/MALE, Route: ORAL, Dose: 0, 29, 65 PPM TWA, IN DIET FOR 59-80 WK (STUDY DURATION: 110-111 WK), Dose: 0, 29, 65 PPM TWA, IN DIET FOR 59-80 WK (STUDY DURATION: 110-111 WK)) “inactive; negative”.
In the case of `ClC[C@@H]1O[C@@H]1Cl`, the carcinogen call is “active; positive” (Species: MOUSE, Strain/Sex: ICR/FEMALE, Route: DERMAL, Dose: 10 MG IN 0.1 ML ACETONE 3/WK FOR LIFE, Tumor Site: Type of Lesion: INTEGUMENTARY SYSTEM (SKIN): PAPILLOMA, SQUAMOUS CELL CARCINOMA) and “active; positive” (Species: MOUSE, Strain/Sex: ICR/FEMALE, Route: SUBCUTANEOUS, Dose: 500 UG IN 0.05 ML TRICAPRYLIN 1/WK FOR LIFE, Tumor Site: Type of Lesion: INJECTION SITE: FIBROSARCOMA).
On to `CN(C)C(=O)Cl`, for which the carcinogen call reads like this: (Species: MOUSE, Route: DERMAL, Tumor Site: Type of Lesion: INTEGUMENTARY SYSTEM (SKIN)) “active; positive”; (Species: MOUSE, Route: INTRAPERITONEAL, SUBCUTANEOUS, Tumor Site: Type of Lesion: INJECTION SITE) “active; positive”.
For the molecule `P`, the carcinogen call (Species: RAT, Strain/Sex: F344/FEMALE, Route: INHALATION, Dose: 0, 0.3, 1.0, 3.0 PPM 6 HR/D 5 D/WK FOR 104 WK (STUDY DURATION: 104 WK), Dose: 0, 0.3, 1.0, 3.0 PPM 6 HR/D 5 D/WK FOR 104 WK (STUDY DURATION: 104 WK)) is “inactive; negative” and the carcinogen call (Species: RAT, Strain/Sex: F344/MALE, Route: INHALATION, Dose: 0, 0.3, 1.0, 3.0 PPM 6 HR/D 5 D/WK FOR 104 WK (STUDY DURATION: 104 WK), Dose: 0, 0.3, 1.0, 3.0 PPM 6 HR/D 5 D/WK FOR 104 WK (STUDY DURATION: 104 WK)) was “inactive; negative”.
`CN(C#N)N=O`: the carcinogen call (Species: RAT, Strain/Sex: SPRAGUE-DAWLEY/FEMALE, Route: ORAL, Dose: 0, 6.9 MG/KG IN 25 ML DRINKING WATER DAILY (STUDY DURATION: >11 MO), Tumor Site: Type of Lesion: FORESTOMACH: SQUAMOUS CELL CARCINOMA, ESOPHAGUS: SQUAMOUS CELL PAPILLOMA OR SQUAMOUS CELL CARCINOMA) was “active; positive”.
On to `ClCC(Cl)(Cl)Cl`, for which the carcinogen call runs as follows: (Species: MOUSE, Strain/Sex: B6C3F1/FEMALE, Route: GAVAGE, Dose: 0, 250, 500 MG/KG IN CORN OIL, Dose: 0, 250, 500 MG/KG IN CORN OIL, Tumor Site: Type of Lesion: LIVER: HEPATOCELLULAR ADENOMA OR CARCINOMA) “active; positive”; (Species: MOUSE, Strain/Sex: B6C3F1/MALE, Route: GAVAGE, Dose: 0, 250, 500 MG/KG IN CORN OIL, Dose: 0, 250, 500 MG/KG IN CORN OIL, Tumor Site: Type of Lesion: LIVER: HEPATOCELLULAR ADENOMA) “active; positive”; (Species: RAT, Strain/Sex: F344/FEMALE, Route: GAVAGE, Dose: 0, 125, 250 MG/KG IN CORN OIL 5 D/WK FOR 103 WK (STUDY DURATION: 103 WK), Dose: 0, 125, 250 MG/KG IN CORN OIL 5 D/WK FOR 103 WK (STUDY DURATION: 103 WK)) “inactive; negative”; (Species: RAT, Strain/Sex: F344/MALE, Route: GAVAGE, Dose: 0, 125, 250 MG/KG IN CORN OIL 5 D/WK FOR 103 WK (STUDY DURATION: 103 WK), Dose: 0, 125, 250 MG/KG IN CORN OIL 5 D/WK FOR 103 WK (STUDY DURATION: 103 WK), Tumor Site: Type of Lesion: LIVER: NEOPLASTIC NODULE, HEPATOCELLULAR CARCINOMA) “equivocal”.
Consider `Cc1cc(C(C)(C)C)c(O)c(C(C)(C)C)c1`, for which the carcinogen call runs as follows: (Species: MOUSE, Strain/Sex: B6C3F1/FEMALE, Route: ORAL, Dose: 0, 3000, 6000 PPM IN DIET, Dose: 0, 3000, 6000 PPM IN DIET) “inactive; negative”; (Species: MOUSE, Strain/Sex: B6C3F1/MALE,FEMALE, Route: ORAL, Dose: 200, 1000, 5000 PPM IN DIET FOR 96 WK, Dose: 200, 1000, 5000 PPM IN DIET FOR 96 WK) “inactive; negative”; (Species: MOUSE, Strain/Sex: B6C3F1/MALE, Route: ORAL, Dose: 0, 3000, 6000 PPM IN DIET, Dose: 0, 3000, 6000 PPM IN DIET) “inactive; negative”; (Species: RAT, Strain/Sex: F344/FEMALE, Route: ORAL, Dose: 0, 3000, 6000 PPM IN DIET, Dose: 0, 3000, 6000 PPM IN DIET) “inactive; negative”; (Species: RAT, Strain/Sex: F344/MALE, Route: ORAL, Dose: 0, 3000, 6000 PPM IN DIET, Dose: 0, 3000, 6000 PPM IN DIET) “inactive; negative”.
